“Also recorded” adds a separate entry of the source.
Key:
GST-tagged CDK2 = target: T1, GST-tagged CDK2 (Homo sapiens, UniProt P24941); test: Surface plasmon resonance (SPR), CDK2; assay type: binding
T1 construct: The gene encoding human CDK2 (1-298) was custom-synthesized; made in house; host or cells: E. coli BL21 DE3 RIPL

[1] = target: T2, CDK2 (C118A C177S A93C R157C) (Homo sapiens, UniProt P24941, A93C/C118A/C177S/R157C); test: Intramolecular FRET assay of CDK2 activation loop position; assay type: binding
T2 construct: made in house; cyclin A: BL21(DE3)pLysS

human CDK2 (1-298) = human CDK2 (1-298) (Homo sapiens, UniProt P24941); test: Isothermal titration calorimetry (ITC)
CDK/cyclin complexes = test: Commercial CDK/cyclin kinase activity panel (Reaction Biology); assay type: biochemical; conditions: concentration well above its KD

Row | fold slower dissociation rate than the allosteric inhibitors (GST-tagged CDK2) | Compound | Kd [1] | Kd (human CDK2 (1-298)) | T∆S (human CDK2 (1-298); ITC, 25 °C) | n (binding stoichiometry) (human CDK2 (1-298); ITC, 25 °C) | ∆H (human CDK2 (1-298); ITC, 25 °C) | inhibition of CDK/cyclin complexes (CDK/cyclin complexes)
1 | ≥ 10 fold | cyclin: Bovine cyclin A (171-432 with a C-terminal 6His tag) | – | – | – | – | – | –
2 | – | O=C(O)c1cc(C(F)(F)F)ccc1NCCc1c[nH]c2cc(Cl)ccc12 [Compound 4, 2-((2-(6-Chloro-1H-indol-3-yl)ethyl)amino)−5-(trifluoromethyl)benzoic Acid] | 280 nM | 31 nM | 4.8 kcal/mol | 1.39 | -5.5 kcal/mol | poorly inhibits; also recorded: does not substantially inhibit any CDK/cyclin complex
